Results as given in US20230256120A1, “DIAGNOSTIC AGENT FOR PANCREATIC FUNCTION” (HAMAMATSU PHOTONICS K.K., priority 2020, published 2023).

Tested on: MC-I in the pancreas
Assay: PET measurement of [^18F]BCPP-BF accumulation in the pancreas of type II diabetes model rats
Format: in vivo, rat
Conditions: fatty rats versus lean rats; PET measurement method; after 5 weeks of age; FIG. 2(A)
From the text: Male Zucker Leprfa/Leprfa rats (hereinafter also referred to as “fatty rats”) that develop pathological conditions similar to type II diabetes of human adults and male Zucker Leprfa/+ rats (hereinafter also referred to as “lean rats”) as controls thereof were purchased from Charles River Laboratories Japan, Inc., and used for PET measurement at 5, 8, 16, and 26 weeks of age.
The rats were anesthetized with isoflurane and fixed in a gantry of an animal PET camera (SHR-38000, manufactured by Hamamatsu Photonics K.K.). […] After the completion of the PET measurement, a region of interest was set on the pancreas identified from an accumulated PET image 40 to 60 minutes after the administration of D-[^11C]MT, and the amount of [^18F]BCPP-BF accumulated in the region of interest was calculated. Subsequently, the calculated accumulation amount was normalized by the amount of radioactivity administered and the body weight of each individual and defined as an amount (amount (SUV) of radioactivity administered) of [^18F]BCPP-BF accumulated in the pancreas.
The pancreas was excised from each rat immediately after the completion of the PET measurement, and the weight of the excised pancreas was measured. Subsequently, the radioactivity of the excised pancreas was measured using a gamma counter (manufactured by PerkinElmer Inc., 1480 WIZARD). […]

SMILES: CC(C)(C)n1ncc(OCc2ccc(OCCCC[18F])nc2)c(Cl)c1=O [[^18F]BCPP-BF]
- uptake (SUV) of [^18F]BCPP-BF in the pancreas: decreased
